Structures are written as SMILES.

The assay deals with T1, mGlyT-1b (Mus musculus, UniProt P28571).
T1 construct: host or cells: Flp-in-CHO
T1 sequence (P28571 1-651 isoform P28571-2): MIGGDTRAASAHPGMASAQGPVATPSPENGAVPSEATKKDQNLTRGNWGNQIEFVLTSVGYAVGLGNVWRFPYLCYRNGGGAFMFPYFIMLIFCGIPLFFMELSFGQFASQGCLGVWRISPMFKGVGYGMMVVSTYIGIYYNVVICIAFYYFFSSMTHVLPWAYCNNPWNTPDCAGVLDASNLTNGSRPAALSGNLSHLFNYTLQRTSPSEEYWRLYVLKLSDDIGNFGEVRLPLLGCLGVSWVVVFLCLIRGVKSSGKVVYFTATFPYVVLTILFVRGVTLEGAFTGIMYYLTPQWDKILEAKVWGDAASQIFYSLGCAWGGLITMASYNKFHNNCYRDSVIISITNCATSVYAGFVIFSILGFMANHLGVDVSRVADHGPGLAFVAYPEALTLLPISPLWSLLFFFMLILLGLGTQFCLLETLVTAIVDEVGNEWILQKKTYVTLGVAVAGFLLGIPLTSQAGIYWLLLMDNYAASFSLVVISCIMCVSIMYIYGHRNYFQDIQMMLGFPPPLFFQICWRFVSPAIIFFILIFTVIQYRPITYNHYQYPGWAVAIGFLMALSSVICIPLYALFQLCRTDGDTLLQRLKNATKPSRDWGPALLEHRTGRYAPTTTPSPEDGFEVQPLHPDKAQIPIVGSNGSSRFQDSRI
Nature of the assay: Glycine uptake inhibition assay (mGlyT-1b). Format: cell-based. Conditions: inhibition of [3H]-glycine uptake in Flp-in-CHO cells transfected with mGlyT-1b cDNA; 20 min preincubation at 22° C.; read-out: IC50 (μM) at GlyT-1. The gist of the method:
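Flp-in CHO cells stably expressing mouse GlyT-1b were preincubated with inhibitor (concentration range) for 20 min at 22° C. in pH 7.4 uptake buffer; nonspecific uptake defined with 10 mM glycine. [3H]-glycine 60 nM plus 25 μM unlabelled glycine was then added; cell-associated radioactivity counted by scintillation and IC50 derived.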

Consider `COc1ccc2c(c1)CN(C(=O)c1cc(S(C)(=O)=O)ccc1OC(C)C)C2` [Example 74, (2-Isopropoxy-5-methanesulfonyl-phenyl)-(5-methoxy-1,3-dihydro-isoindol-2-yl)-methanone], for which the IC50 amounted to 0.031 µM.
As to `CS(=O)(=O)c1ccc(OCC(F)(F)C(F)(F)F)c(C(=O)N2Cc3ccc(C4CCCOC4)cc3C2)c1` (racemic) [Example 364, rac-[5-Methanesulfonyl-2-(2,2,3,3,3-pentafluoro-propoxy)-phenyl]-[5-(tetrahydro-pyran-3-yl)-1,3-dihydro-isoindol-2-yl]-methanone], the IC50 amounted to 0.005 µM.
To `CCSc1cc2c(cc1C(F)(F)F)CN(C(=O)c1cc(S(C)(=O)=O)ccc1O[C@@H](C)C(F)(F)F)C2` [Example 217, (5-Ethylsulfanyl-6-trifluoromethyl-1,3-dihydro-isoindol-2-yl)-[5-methanesulfonyl-2-((S)-2,2,2-trifluoro-1-methyl-ethoxy)-phenyl]-methanone] belongs 0.037 µM; to `C[C@H](Oc1ccc(S(C)(=O)=O)cc1C(=O)N1Cc2cc(Cl)c(OC3CCOCC3)cc2C1)C(F)(F)F` [Example 375, [5-Chloro-6-(tetrahydro-pyran-4-yloxy)-1,3-dihydro-isoindol-2-yl]-[5-methanesulfonyl-2-((S)-2,2,2-trifluoro-1-methyl-ethoxy)-phenyl]-methanone], 0.015 µM.
Take `CS(=O)(=O)c1ccc(OCC(F)(F)C(F)(F)F)c(C(=O)N2Cc3ccc(OC4CCOCC4)cc3C2)c1` [Example 374, [5-Methanesulfonyl-2-(2,2,3,3,3-pentafluoro-propoxy)-phenyl]-[5-(tetrahydro-pyran-4-yloxy)-1,3-dihydro-isoindol-2-yl]-methanone]: the IC50 came to 0.003 µM.
On to `Cc1cc2c(cc1Cl)CN(C(=O)c1cc(S(C)(=O)=O)ccc1O[C@@H](C)C(F)(F)F)C2` [Example 24, (5-Chloro-6-methyl-1,3-dihydro-isoindol-2-yl)-[5-methanesulfonyl-2-((S)-2,2,2-trifluoro-1-methyl-ethoxy)-phenyl]-methanone], for which the IC50 was 0.019 µM.
In the case of `CC(C)COc1ccc(S(C)(=O)=O)cc1C(=O)N1Cc2ccc(C(F)(F)F)cc2C1` [Example 35, (2-Isobutoxy-5-methanesulfonyl-phenyl)-(5-trifluoromethyl-1,3-dihydro-isoindol-2-yl)-methanone], the IC50 is 0.028 µM.
Consider `Cc1ccsc1-c1ccc2c(c1)CN(C(=O)c1cc(S(C)(=O)=O)ccc1O[C@@H](C)C(F)(F)F)C2` [Example 332, [5-Methanesulfonyl-2-(2,2,2-trifluoro-1-methyl-ethoxy)-phenyl]-[5-(3-methyl-thiophen-2-yl)-1,3-dihydro-isoindol-2-yl]-methanone], for which the IC50 stood at 0.041 µM.
As to `CS(=O)(=O)c1ccc(-c2ccccc2)c(C(=O)N2CCc3c(C#N)cccc32)c1` [Example 204, 1-(4-Methanesulfonyl-biphenyl-2-carbonyl)-2,3-dihydro-1H-indole-4-carbonitrile], the IC50 came out at 0.019 µM.
Turning to `C[C@H](Oc1ccc(S(C)(=O)=O)cc1C(=O)N1Cc2ccc(-c3ccc(F)cc3)nc2C1)C(F)(F)F` [Example 382, [2-(4-Fluoro-phenyl)-5,7-dihydro-pyrrolo[3,4-b]pyridin-6-yl]-[5-methanesulfonyl-2-((S)-2,2,2-trifluoro-1-methyl-ethoxy)-phenyl]-methanone], the IC50 was 0.024 µM.
With `Cc1csc(-c2ccc3c(c2)CN(C(=O)c2cc(S(C)(=O)=O)ccc2O[C@@H](C)C(F)(F)F)C3)n1` [Example 168, [5-Methanesulfonyl-2-((S)-2,2,2-trifluoro-1-methyl-ethoxy)-phenyl]-[5-(4-methyl-thiazol-2-yl)-1,3-dihydro-isoindol-2-yl]-methanone], the IC50 came out at 0.033 µM.
For `C[C@H](Oc1ccc(S(C)(=O)=O)cc1C(=O)N1Cc2ccc(-c3cccs3)cc2C1)C(F)(F)F` [Example 344], the IC50 was determined as 0.02 µM.
For the molecule `CS(=O)(=O)c1ccc(OCC2CC2)c(C(=O)N2Cc3ccc(C4CCOCC4)cc3C2)c1` [Example 271, (2-Cyclopropyl-methoxy-5-methane-sulfonyl-phenyl)-[5-(tetrahydro-pyran-4-yl)-1,3-dihydro-isoindol-2-yl]-methanone], the IC50 worked out at 0.029 µM.
The figure for `CS(=O)(=O)c1ccc(OCC2CCC2)c(C(=O)N2Cc3cc(Cl)c(N4CCOCC4)cc3C2)c1` [Example 249, (5-Chloro-6-morpho-lin-4-yl-1,3-dihydro-isoindol-2-yl)-(2-cyclobutylmethoxy-5-methanesulfonyl-phenyl)-methanone] is 0.022 µM; for `CS(=O)(=O)c1ccc(OCC(F)(F)C(F)(F)F)c(C(=O)N2Cc3cnc(C(F)(F)F)cc3C2)c1` [Example 155, [5-Methanesulfonyl-2-(2,2,3,3,3-pentafluoro-propoxy)-phenyl]-(6-trifluoromethyl-1,3-dihydro-pyrrolo[3,4-c]pyridin-2-yl)-methanone] it is 0.044 µM; for `COC(=O)c1cccc2c1CCN2C(=O)c1cc(S(C)(=O)=O)ccc1O[C@@H](C)C(F)(F)F` [Example 205, 1-[5-Methanesulfonyl-2-((S)-2,2,2-trifluoro-1-methyl-ethoxy)-benzoyl]-2,3-dihydro-1H-indole-4-carboxylic acid methyl ester] it is 0.046 µM.
With `C[C@H](Oc1ccc(S(C)(=O)=O)cc1C(=O)N1Cc2ccc(-c3ccncc3)cc2C1)C(F)(F)F` [Example 315, [5-Methanesulfonyl-2-((S)-2,2,2-trifluoro-1-methyl-ethoxy)-phenyl]-(5-pyridin-4-yl-1,3-dihydro-isoindol-2-yl)-methanone], the IC50 amounted to 0.017 µM.
For the molecule `C[C@H](Oc1ccc(S(C)(=O)=O)cc1C(=O)N1Cc2ccc(-c3cccc(F)c3)cc2C1)C(F)(F)F` [Example 334, [5-(3-Fluoro-phenyl)-1,3-dihydro-isoindol-2-yl]-[5-methanesulfonyl-2-(2,2,2-trifluoro-1-methyl-ethoxy)-phenyl]-methanone], the IC50 is 0.02 µM.

Values taken from patent US8188139B2, “Heterocyclic-substituted phenyl methanones” (Hoffman-La Roche Inc., priority 2005, dated 2012).
